The source of these data is patent publication US12329737B2, “Dendrilla membranosa compounds, derivatives thereof, and uses thereof” (UNIVERSITY OF SOUTH FLORIDA, priority 2018, dated 2025).

Values after ≈ are worked out from the molar mass of the structure shown.

By MIC is commonly meant the least concentration at which growth counts as inhibited. A lower MIC goes with inhibition by little substance.

Series [1] relates to multidrug resistant S. aureus biofilm. The experiment in a line: minimum biofilm eradication concentration (MBEC), MRSA biofilm. The format is cell-based. As to conditions: for MBEC90: 90% of population eradicated compared to no treatment. An excerpt: Each sample tested in triplicate for all concentrations. Calculated based on no drug controls and represented as a log 10 scale. Error=±SEM. MBEC 90/50: level to which 90% or 50% of the population was eradicated compared to no treatment.

Another series deals with J774A.1. The experiment in a line: mammalian cytotoxicity assay. In kind it is cell-based.
The next series has as its system MRSA biofilm. Kind of series: standard biofilm assay. The format is cell-based, Staphylococcus aureus.
For another series, the system named is MRSA. The experiment in a line: standard MRSA assay (MIC). The settings on record: Staphylococcus aureus. The format is cell-based.

In series [1], `CC(=O)O[C@@H]1O[C@H](OC(C)=O)[C@H]2C(=O)[C@@H]([C@@]3(C)CCCC(C)(C)C3)CC[C@@H]12` [Compound 19, keto-9, 11-dihydrogracilin A] had an MBEC90 of 50 mg/mL.

The compound `COC(=O)[C@H](C)c1c([C@@]2(C)CCCC(C)(C)C2)ccc2c1C(=O)OC2` [Compound 3, membranolide] gave an MBEC90 in series [1] of less than 25 mg/mL. In the series with J774A.1, the “Cytotoxicity (μM) against strain J774A.1” value stood at 76.8 µM.

For `COC(=O)[C@H](C)c1c([C@@]2(C)CCCC(C)(C)C2)ccc2c1[C@H](O)OC2=O` [Compound 12, membranoid Y], the “Cytotoxicity (μM) against strain J774A.1” value with J774A.1 was greater than 139 µM.

For the compound `CO[C@@H]1O[C@@H](OC(C)=O)c2ccc([C@@]3(C)CCCC(C)(C)C3)c([C@@H](C)C(=O)O)c21` [Compound 11, membranoid X], the “Cytotoxicity (μM) against strain J774A.1” value in the series with J774A.1 came to 62.9 µM.

`C[C@@H](CO)c1c([C@@]2(C)CCCC(C)(C)C2)ccc(CO)c1CO` [Compound 20, Mebranolide triol]: the MRSA biofilm bioactivity result in series [1] was “lacked MRSA biofilm bioactivity”.

For the compound `C[C@H]1C(=O)O[C@@H](O)c2c(C=O)ccc([C@@]3(C)CCCC(C)(C)C3)c21` [Compound 10, membranoid G], the “Cytotoxicity (μM) against strain J774A.1” value with J774A.1 was greater than 151 µM.

`CCC1=C(C=O)[C@H](C(=O)OC)CC[C@@H]1[C@@]1(C)CCCC(C)(C)C1` [Compound 17] displayed an MBEC90 in series [1] of 50 mg/mL.

Regarding `CO[C@H]1OC(=O)[C@H](C)c2c([C@@]3(C)CCCC(C)(C)C3)ccc(C=O)c21` [Compound 5, membranoid A], the “Cytotoxicity (μM) against strain J774A.1” value in the series on J774A.1 was 54.6 µM.

As to `CO[C@@H]1O[C@@H](OC)c2c1ccc([C@@]1(C)CCCC(C)(C)C1)c2[C@@H](C)C(=O)O` [Compound 7, membranoid C], in series [1], the MRSA biofilm bioactivity result is “lacked MRSA biofilm bioactivity”. In addition, the “Cytotoxicity (μM) against strain J774A.1” value in the series with J774A.1 was greater than 133 µM.

Regarding `CC(=O)O[C@@H]1OC2OC(=O)C3=C(C)C([C@@]4(C)CCCC(C)(C)C4)CCC1C32` (stereo partly drawn) [Compound 24, Darwinolide], the “MIC in a standard biofilm assay” value in the series on MRSA biofilm is 33.2 µM (≈ 12.5 µg/mL). For the same compound, the MBEC90 in series [1] was found to be 35 mg/mL. The MIC in the series with MRSA is roughly 133 µM (≈ 50 µg/mL). Further, the “mammalian (J773) toxicity” value with J774A.1 (J773 cells, mammalian cytotoxicity assay) worked out at 73.4 µM. In the series on J774A.1, the “Cytotoxicity (μM) against strain J774A.1” value turned out to be 20.13 µM.

Consider `CC(=O)O[C@@H]1OC2OC(=O)[C@H](C)C3=C([C@@]4(C)CCCC(C)(C)C4)CCC1C32` (stereo partly drawn) [Compound 2, tetrahydroaplysulphurin], for which, in the series on J774A.1, the “Cytotoxicity (μM) against strain J774A.1” value was greater than 133 µM.

Regarding `CC(=O)O[C@@H]1OC2OC(=O)[C@H](C)c3c([C@@]4(C)CCCC(C)(C)C4)ccc1c32` (stereo partly drawn) [Compound 1, aplysulphurin], the “Cytotoxicity (μM) against strain J774A.1” value with J774A.1 is 12.3 µM.

On to `CC(=O)O[C@@H]1OC2OC(=O)[C@H](C)[C@@]34OO[C@@]([C@@]5(C)CCCC(C)(C)C5)(CCC1C23)O4` (stereo partly drawn) [Compound 18, Tetrahydroaplytrioxolane], for which the MRSA biofilm bioactivity result in series [1] was “lacked MRSA biofilm bioactivity”.

As for `CO[C@H]1O[C@H](OC)c2c1ccc([C@@]1(C)CCCC(C)(C)C1)c2[C@@H](C)C(=O)O` [Compound 6, membranoid B], in the series with J774A.1, the “Cytotoxicity (μM) against strain J774A.1” value was greater than 133 µM.

In the case of `CO[C@H]1O[C@@H](OC)c2c1ccc([C@@]1(C)CCCC(C)(C)C1)c2[C@@H](C)C(=O)O` [Compound 9, membranoid E], in the series with J774A.1, the “Cytotoxicity (μM) against strain J774A.1” value came out at 95 µM.

Take `CO[C@@H]1O[C@H](OC)c2c1ccc([C@@]1(C)CCCC(C)(C)C1)c2[C@@H](C)C(=O)O` [Compound 8, membranoid D]: the MRSA biofilm bioactivity result in series [1] is reported as “lacked MRSA biofilm bioactivity”. The “Cytotoxicity (μM) against strain J774A.1” value in the series on J774A.1 was greater than 133 µM.

For the compound `COC(=O)[C@H](C)C1=C([C@@]2(C)CCCC(C)(C)C2)CCC2COC(=O)C12` (stereo partly drawn) [Compound 4, tetrahydromembranolide], in the series with J774A.1, the “Cytotoxicity (μM) against strain J774A.1” value is 64.9 µM.
